Results taken from ChEMBL document CHEMBL3885861, “Open TG-GATES”.

Organism: Rattus norvegicus
Experiment: Open TG-GATES - Regimen: Daily Repeat
Assay type: toxicity, organism-based, Sprague-Dawley
Parameters: regimen Daily Repeat, gender Male, age 6 weeks
Conditions: in vivo, po, 150 mg/kg, route gavage, dose level Middle; for APTT / Bas / Eos / Fbg / Hb / Ht / Lym / MCH / MCHC / MCV / Mono / Neu / PT / Plat / RBC / Ret / WBC: tissue Blood; for KIDNEY_L / KIDNEY_R / KIDNEY_TOTAL: tissue Kidney; for LIVER: tissue Liver; for A/G / ALP / ALT / AST / BUN / CRE / Ca / Cl / DBIL / GLC / IP / K / LDH / Na / PL / RALB / TBIL / TC / TG / TP / gamma-GTP: tissue Plasma

Compound: CC(=O)Oc1cc(C(C)C)c(OCCN(C)C)cc1C [MOXISYLYTE]
- TERMINAL_BW (72 h, time 3 day): 223.4 g
- APTT (72 h, time 3 day): 20.6 s
- Bas (72 h, time 3 day): 0%
- Eos (72 h, time 3 day): 1%
- Fbg (72 h, time 3 day): 313 mg/dL
- Hb (72 h, time 3 day): 14.1 g/dL
- Ht (72 h, time 3 day): 40.5%
- Lym (72 h, time 3 day): 78%
- MCH (72 h, time 3 day): 21.3 pg
- MCHC (72 h, time 3 day): 34.8%
- MCV (72 h, time 3 day): 61.2 fL
- Mono (72 h, time 3 day): 2.4%
- Neu (72 h, time 3 day): 17.6%
- PT (72 h, time 3 day): 16.2 s
- Plat (72 h, time 3 day): 113.1 x10_4/uL
- RBC (72 h, time 3 day): 663.6 x10_4/ul
- Ret (72 h, time 3 day): 6.3%
- WBC (72 h, time 3 day): 91.7 x10_2/uL
- KIDNEY_L (72 h, time 3 day): 1 g
- KIDNEY_R (72 h, time 3 day): 1 g
- KIDNEY_TOTAL (72 h, time 3 day): 2 g
- LIVER (72 h, time 3 day): 9.7 g
- A/G (72 h, time 3 day): 1.3
- ALP (72 h, time 3 day): 1491.8 IU/L
- ALT (72 h, time 3 day): 42.6 IU/L
- AST (72 h, time 3 day): 75.6 IU/L
- BUN (72 h, time 3 day): 16.4 mg/dL
- CRE (72 h, time 3 day): 0.1 mg/dL
- Ca (72 h, time 3 day): 10.8 mg/dL
- Cl (72 h, time 3 day): 106.6 meq/L
- DBIL (72 h, time 3 day): 0.01 mg/dL
- GLC (72 h, time 3 day): 176.8 mg/dL
- IP (72 h, time 3 day): 7.4 mg/dL
- K (72 h, time 3 day): 4.2 meq/L
- LDH (72 h, time 3 day): 242.8 IU/L
- Na (72 h, time 3 day): 142.6 meq/L
- PL (72 h, time 3 day): 159.8 mg/dL
- RALB (72 h, time 3 day): 3.3 g/dL
- TBIL (72 h, time 3 day): 0.008 mg/dL
- TC (72 h, time 3 day): 74.4 mg/dL
- TG (72 h, time 3 day): 140.6 mg/dL
- TP (72 h, time 3 day): 5.8 g/dL
- gamma-GTP (72 h, time 3 day): 1 IU/L
- TERMINAL_BW ([…], time 7 day): 265.4 g
- TERMINAL_BW ([…], time 14 day): 312.1 g
- TERMINAL_BW ([…], time 28 day): 361.5 g
- APTT ([…], time 7 day): 22.3 s
- Bas ([…], time 7 day): 0%
- Eos ([…], time 7 day): 0.6%
- Fbg ([…], time 7 day): 318.2 mg/dL
- Hb ([…], time 7 day): 13.4 g/dL
- Ht ([…], time 7 day): 38.8%
- Lym ([…], time 7 day): 81.4%
- MCH ([…], time 7 day): 21.1 pg
- MCHC ([…], time 7 day): 34.6%
- MCV ([…], time 7 day): 61.2 fL
- Mono ([…], time 7 day): 2.2%
- Neu ([…], time 7 day): 15.2%
- PT ([…], time 7 day): 15.3 s
- Plat ([…], time 7 day): 113.7 x10_4/uL
- RBC ([…], time 7 day): 633.2 x10_4/ul
- Ret ([…], time 7 day): 6.1%
- WBC ([…], time 7 day): 110.8 x10_2/uL
- APTT ([…], time 14 day): 21.8 s
- Bas ([…], time 14 day): 0%
- Eos ([…], time 14 day): 1.2%
- Fbg ([…], time 14 day): 310.8 mg/dL
- Hb ([…], time 14 day): 14.5 g/dL
- Ht ([…], time 14 day): 40%
- Lym ([…], time 14 day): 76.4%
- MCH ([…], time 14 day): 20.9 pg
- MCHC ([…], time 14 day): 36.3%
- MCV ([…], time 14 day): 57.8 fL
- Mono ([…], time 14 day): 2.6%
- Neu ([…], time 14 day): 19%
- PT ([…], time 14 day): 15.9 s
- Plat ([…], time 14 day): 117.3 x10_4/uL
- RBC ([…], time 14 day): 692.8 x10_4/ul
- Ret ([…], time 14 day): 4.9%
- WBC ([…], time 14 day): 125.2 x10_2/uL
- APTT ([…], time 28 day): 22.5 s
- Bas ([…], time 28 day): 0%
- Eos ([…], time 28 day): 1%
- Fbg ([…], time 28 day): 323.6 mg/dL
- Hb ([…], time 28 day): 15.1 g/dL
- Ht ([…], time 28 day): 42.5%
- Lym ([…], time 28 day): 81.6%
- MCH ([…], time 28 day): 19 pg
- MCHC ([…], time 28 day): 35.4%
- MCV ([…], time 28 day): 53.5 fL
- Mono ([…], time 28 day): 2.4%
- Neu ([…], time 28 day): 14.2%
- PT ([…], time 28 day): 15.6 s
- Plat ([…], time 28 day): 92.2 x10_4/uL
- RBC ([…], time 28 day): 793.6 x10_4/ul
- Ret ([…], time 28 day): 2.7%
- WBC ([…], time 28 day): 166.9 x10_2/uL
- KIDNEY_L ([…], time 7 day): 1.1 g
- KIDNEY_R ([…], time 7 day): 1.2 g
- KIDNEY_TOTAL ([…], time 7 day): 2.3 g
- KIDNEY_L ([…], time 14 day): 1.2 g
- KIDNEY_R ([…], time 14 day): 1.3 g
- KIDNEY_TOTAL ([…], time 14 day): 2.6 g
- KIDNEY_L ([…], time 28 day): 1.4 g
- KIDNEY_R ([…], time 28 day): 1.4 g
- KIDNEY_TOTAL ([…], time 28 day): 2.8 g
- LIVER ([…], time 7 day): 12.3 g
- LIVER ([…], time 14 day): 13.7 g
- LIVER ([…], time 28 day): 14.2 g
- A/G ([…], time 7 day): 1.3
- ALP ([…], time 7 day): 1576.8 IU/L
- ALT ([…], time 7 day): 43.4 IU/L
- AST ([…], time 7 day): 77.8 IU/L
- BUN ([…], time 7 day): 17.2 mg/dL
- CRE ([…], time 7 day): 0.2 mg/dL
- Ca ([…], time 7 day): 10.6 mg/dL
- Cl ([…], time 7 day): 106 meq/L
- DBIL ([…], time 7 day): 0 mg/dL
- GLC ([…], time 7 day): 192.2 mg/dL
- IP ([…], time 7 day): 7.2 mg/dL
- K ([…], time 7 day): 4.3 meq/L
- LDH ([…], time 7 day): 192.2 IU/L
- Na ([…], time 7 day): 141.4 meq/L
- PL ([…], time 7 day): 155.4 mg/dL
- RALB ([…], time 7 day): 3.1 g/dL
- TBIL ([…], time 7 day): 0.006 mg/dL
- TC ([…], time 7 day): 75.6 mg/dL
- TG ([…], time 7 day): 147.6 mg/dL
- TP ([…], time 7 day): 5.5 g/dL
- gamma-GTP ([…], time 7 day): 1.4 IU/L
- A/G ([…], time 14 day): 1.2
- ALP ([…], time 14 day): 1330.2 IU/L
- ALT ([…], time 14 day): 44.6 IU/L
- AST ([…], time 14 day): 79.2 IU/L
- BUN ([…], time 14 day): 18.8 mg/dL
- CRE ([…], time 14 day): 0.2 mg/dL
- Ca ([…], time 14 day): 10.6 mg/dL
- Cl ([…], time 14 day): 107.4 meq/L
- DBIL ([…], time 14 day): 0 mg/dL
- GLC ([…], time 14 day): 173.2 mg/dL
- IP ([…], time 14 day): 6 mg/dL
- K ([…], time 14 day): 4.2 meq/L
- LDH ([…], time 14 day): 181.2 IU/L
- Na ([…], time 14 day): 141 meq/L
- PL ([…], time 14 day): 146.2 mg/dL
- RALB ([…], time 14 day): 3.1 g/dL
- TBIL ([…], time 14 day): 0 mg/dL
- TC ([…], time 14 day): 76.2 mg/dL
- TG ([…], time 14 day): 151.4 mg/dL
- TP ([…], time 14 day): 5.7 g/dL
- gamma-GTP ([…], time 14 day): 1 IU/L
- A/G ([…], time 28 day): 1
- ALP ([…], time 28 day): 1105.4 IU/L
- ALT ([…], time 28 day): 41 IU/L
- AST ([…], time 28 day): 70.4 IU/L
- BUN ([…], time 28 day): 17.4 mg/dL
- CRE ([…], time 28 day): 0.2 mg/dL
- Ca ([…], time 28 day): 10.4 mg/dL
- Cl ([…], time 28 day): 107 meq/L
- DBIL ([…], time 28 day): 0.002 mg/dL
- GLC ([…], time 28 day): 188.2 mg/dL
- IP ([…], time 28 day): 6.1 mg/dL
- K ([…], time 28 day): 4.1 meq/L
- LDH ([…], time 28 day): 137 IU/L
- Na ([…], time 28 day): 141.8 meq/L
- PL ([…], time 28 day): 143 mg/dL
- RALB ([…], time 28 day): 3.1 g/dL
- TBIL ([…], time 28 day): 0.006 mg/dL
- TC ([…], time 28 day): 71.4 mg/dL
- TG ([…], time 28 day): 150.4 mg/dL
- TP ([…], time 28 day): 6 g/dL
- gamma-GTP ([…], time 28 day): 2.2 IU/L
